Test results from patent US9682960B2 (priority 2013, dated 2017).
Where “and” joins values, the source holds several entries; their conditions need not be identical. Equal values may be shown once.

What was measured:
[1] = tested on: castrated (CX) immature male rats; assay: Systemic androgenic (agonistic) activity in orchidectomized (CX) immature male rats; format: in vivo, rat; conditions: 0.1 mg/rat/po, 7 days; for CX Agonistic activity % Stimulation Bulbo: bulbocavernosus muscles weight; for CX Agonistic activity % Stimulation SV: seminal vesicles weight; for CX Agonistic activity % Stimulation Prostate: ventral prostate weight
Method: Immature male rats (Crl:CD(SD)Br) 22 to 24-day old weighting 60-80 g at start of treatment were obtained from Charles-River, Inc. (St-Constant, Quebec, Canada) and housed up to 5 per cage in plastic bins in a temperature (23±1° C.)- and light (12 h light/day, lights on at 7 h15)-controlled environment. The rats were fed rodent chow and tap water ad libitum. […] The day following their arrival, the designed animals were orchidectomized (CX) under Isoflurane anesthesia (Study Day 1) via the scrotal route and were then randomly assigned to groups of 3 to 5 animals. At the time of orchidectomy, one silastic implant of dihydrotestosterone (DHT; 1 cm length of pure DHT in silastic tubing having inner and outer diameter of 0.078 and 0.125 inches, respectively), was inserted subcutaneously in the dorsal area of animals assigned to the evaluation of antiandrogenic activity. In the case of intact animal experiments, the orchidectomy and the silastic implant installation are omitted.
Tested compounds were administered orally once daily for 7 days from Study Day 2 to Study Day 8 at doses generally ranging from 0.1 and 0.5 mg/animal. Compounds were either solubilized in dimethylsulfoxide (DMSO, 10% final concentration) and were administered as a solution/suspension in 0.9% NaCl-1% gelatin or were administered as suspensions in 0.4% aqueous methylcellulose. Animals of the control groups received the corresponding vehicle alone during the 7-day period. Some animals were treated with the antiandrogen Flutamide or Casodex as reference. The animals under isoflurane anesthesia were killed by cervical dislocation on day 9 of the study, approximately 24 h after the last dosing. The ventral prostate, seminal vesicles and bulbocavernosus muscles were rapidly dissected and weighed.
For calculations with intact animals, control DHT is replaced by control intact and the % stimulation is subtracted by 100%. W is the weight of the prostate, seminal vesicles or bulbocavernosus muscles. Discussion

Human Androgen Receptor = Human Androgen Receptor (Homo sapiens (Human), UniProt P10275); assay: Androgen receptor assay: [3H]R1881 displacement, cytosol of HEK-293 cells transfected with hAR (hydroxylapatite assay); format: binding; conditions: for Human Androgen Receptor Binding RBA (%) R1881 = 100: relative binding affinity; for times more potent than OH-flutamide on the human AR (RBA ratio): versus hydroxyflutamide
Sequence of Human Androgen Receptor (P10275 whole entry): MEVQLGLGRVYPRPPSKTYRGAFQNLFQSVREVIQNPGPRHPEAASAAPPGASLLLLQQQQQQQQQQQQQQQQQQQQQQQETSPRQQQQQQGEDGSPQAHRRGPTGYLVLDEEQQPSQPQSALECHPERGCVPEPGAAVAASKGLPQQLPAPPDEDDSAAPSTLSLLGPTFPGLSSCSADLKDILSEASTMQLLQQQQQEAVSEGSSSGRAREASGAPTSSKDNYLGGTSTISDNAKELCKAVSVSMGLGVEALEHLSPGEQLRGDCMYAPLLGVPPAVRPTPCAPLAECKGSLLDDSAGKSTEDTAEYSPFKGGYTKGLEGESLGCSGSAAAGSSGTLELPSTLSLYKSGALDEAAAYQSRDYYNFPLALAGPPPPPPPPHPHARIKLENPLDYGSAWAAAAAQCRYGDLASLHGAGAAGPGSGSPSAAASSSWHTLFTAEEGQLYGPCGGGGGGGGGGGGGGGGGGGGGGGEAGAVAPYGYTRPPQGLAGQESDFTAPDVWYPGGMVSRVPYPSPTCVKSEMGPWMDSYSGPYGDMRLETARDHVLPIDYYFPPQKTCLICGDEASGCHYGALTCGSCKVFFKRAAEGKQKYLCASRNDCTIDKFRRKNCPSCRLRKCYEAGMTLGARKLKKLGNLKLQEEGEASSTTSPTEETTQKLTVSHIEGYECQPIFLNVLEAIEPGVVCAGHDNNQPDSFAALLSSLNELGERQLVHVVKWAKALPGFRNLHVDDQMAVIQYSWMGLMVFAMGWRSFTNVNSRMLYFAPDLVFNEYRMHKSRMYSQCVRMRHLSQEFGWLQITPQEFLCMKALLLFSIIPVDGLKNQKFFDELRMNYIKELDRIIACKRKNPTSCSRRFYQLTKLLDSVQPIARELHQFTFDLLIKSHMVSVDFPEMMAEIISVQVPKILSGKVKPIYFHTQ

[2] = tested on: Shionogi mouse mammary carcinoma cells; assay: In vitro androgenic/antiandrogenic activity: proliferation of Shionogi cells with or without DHT; format: cell-based; conditions: for IC50: Mus musculus, read-out: Shionogi Antiandrogenic Activity IC50, DHT (0.3 nM)-stimulated cell number; for % of stimulation at 10^−7M on basal Shionogi cells: basal (no DHT)

Compound	CX Agonistic activity % Stimulation Bulbo [1]	CX Agonistic activity % Stimulation SV [1]	CX Agonistic activity % Stimulation Prostate [1]	Human Androgen Receptor Binding RBA (%) R1881 = 100 (Human Androgen Receptor; transfected cells) [%]	times more potent than OH-flutamide on the human AR (RBA ratio) (Human Androgen Receptor) [times]	IC50 [2] [µM]	% of stimulation at 10^−7M on basal Shionogi cells [2] [%]	Human Androgen Receptor Binding RBA (%) R1881 = 100 (Human Androgen Receptor; […]) [%]
Cc1c(N2C(=O)N(CCCOc3ccc(-c4ccncc4)c(Cl)c3)C(C)(C)C2=O)ccc(C#N)c1Cl [EM-9290]	88±2% and 88 ± 12 (n = 2) %	16 ± 2 (n = 2) %	39 ± 6 (n = 2) %	197	938	0.0648	25	–
Cc1c(N2C(=O)N(CCCOc3ccc(-c4cc[n+]([O-])cc4)c(Cl)c3)C(C)(C)C2=O)ccc(C#N)c1Cl [EM-9291]	91 ± 2 (n = 2) %	21 ± 7 (n = 2) %	47 ± 7 (n = 2) %	64.2	–	0.0755	–	–
Cc1c(N2C(=O)N(CCCOc3ccc(-c4ccncc4)cc3F)C(C)(C)C2=O)ccc(C#N)c1Cl [EM-9297]	120%	26%	31%	–	–	0.0728	–	101
Cc1c(N2C(=O)N(CCCOc3ccc(-c4ccncc4)cc3)C(C)(C)C2=O)ccc(C#N)c1Cl [EM-9300]	127 ± 8 (n = 2) %	25 ± 2 (n = 2) %	40 ± 3 (n = 2) %	–	–	0.0622	–	77.8
Cc1c(N2C(=O)N(CCCOc3ccc(-c4cc[n+]([O-])cc4)cc3F)C(C)(C)C2=O)ccc(C#N)c1Cl [EM-9301]	104 ± 17 (n = 2) %	29 ± 2 (n = 2) %	42 ± 1 (n = 2) %	–	–	0.0557	–	34.6
Cc1c(N2C(=O)N(CCCOc3ccc4ccc[n+]([O-])c4c3)C(C)(C)C2=O)ccc(C#N)c1Cl [EM-9302]	57%	8%	29%	–	–	0.11	–	1.3
Cc1c(N2C(=O)N(CCCOc3ccc(-c4cc[n+]([O-])cc4)cc3)C(C)(C)C2=O)ccc(C#N)c1Cl [EM-9305]	110 ± 5 (n = 2) %	28 ± 3 (n = 2) %	34 ± 5 (n = 2) %	–	–	0.0323	–	26.2
Cc1c(N2C(=O)N(CCCOc3ccc(-c4ccncc4)cc3C(F)(F)F)C(C)(C)C2=O)ccc(C#N)c1Cl [EM-9309]	107±9% and 107 ± 9 (n = 2) %	24 ± 2 (n = 2) %	36 ± 1 (n = 2) %	–	748	0.0669	13	157
Cc1c(N2C(=O)N(CCCOc3ccc(-c4ccncc4Cl)cc3)C(C)(C)C2=O)ccc(C#N)c1Cl [EM-9310]	109 ± 9 (n = 2) %	18 ± 2 (n = 2) %	44 ± 7 (n = 2) %	–	–	0.06	–	92.8
Cc1c(N2C(=O)N(CCCOc3ccc(-c4ccncc4F)cc3)C(C)(C)C2=O)ccc(C#N)c1Cl [EM-9311]	119 ± 8 (n = 2) %	24 ± 3 (n = 2) %	39 ± 1 (n = 2) %	–	–	> 0.1	–	89.0
Cc1c(N2C(=O)N(CCCOc3ccc(-c4cc[n+]([O-])cc4Cl)cc3)C(C)(C)C2=O)ccc(C#N)c1Cl [EM-9313]	88 ± 2 (n = 2) %	14 ± 9 (n = 2) %	36 ± 2 (n = 2) %	–	–	> 0.1	–	34.1
Cc1c(N2C(=O)N(CCCOc3ccc(-c4cc[n+]([O-])cc4F)cc3)C(C)(C)C2=O)ccc(C#N)c1Cl [EM-9318]	92 ± 27 (n = 2) %	14 ± 9 (n = 2) %	42 ± 3 (n = 2) %	46.1	–	0.1	–	–
